Experimental data taken from US20230338395A1, “PROPHYLAXIS AND TREATMENT OF CORONAVIRUS INFECTION” (priority 2020, published 2023).

Assays:
[1] = tested on: COVID-19; conditions: severely ill COVID-19 patients; cited from earlier work
[2] = tested on: tlr7 gene expression; conditions: SLE-patients; cited from earlier work
[3] = tested on: lethal respiratory virus infections; conditions: aged mice, intranasal treatment; cited from earlier work
[4] = tested on: classical swine fever; parameters: species or system pigs; conditions: pig, in vivo, 0.1 mg/kg
[5] = tested on: SARS-CoV-1; parameters: species or system mice; conditions: mouse, in vivo
[6] = tested on: SARS-CoV-2; experiment: Pulmonary inflammation after SARS-CoV-2 challenge in MRL-Fas lpr mice; assay type: in vivo; conditions: 40 mg/kg/day intraperitoneal from around day 15 after viral clearance, lungs inspected at day 40 post infection

C=C1CC[C@H](O)C/C1=C/C=C1\CCC[C@]2(C)[C@@H]([C@H](C)CCCC(C)C)CC[C@@H]12 [vitamin D3]
protection from thrombosis and embolism [1]: protect severely ill COVID-19 patients from thrombosis and embolism | tlr7 gene expression [2]: down-regulating tlr7 gene expression

Polyinosinic:polycytidylic acid [poly(IC)]
protection from lethal respiratory virus infections [3]: protects aged mice from lethal respiratory virus infections | infection fatality rate [4]: lower than the infection fatality rate of the untreated subpopulation | protection compared with the other tlr agonists [5]: most protective | survival [5]: increase survival

CCN(CCO)CCCC(C)Nc1ccnc2cc(Cl)ccc12 (stereo not shown) [hydroxychloroquine]
severity of pulmonary inflammation (score 0-4) [6]: improved
